The results in this text go back to ChEMBL document CHEMBL1201862, “PubChem BioAssay data set” (2004).

Assay [1] deals with CAAX prenyl protease 2 (Homo sapiens, UniProt Q9Y256). As to the kind of experiment: human Rce1 protease inhibitors, dose response, biochemical, yeast membranes, quenched-peptide fluorescence, cherry-pick (AID 588849).
Assay [2] has as its target T1, Caspase-6 (Homo sapiens, UniProt P55212).
T1 sequence (P55212 whole entry): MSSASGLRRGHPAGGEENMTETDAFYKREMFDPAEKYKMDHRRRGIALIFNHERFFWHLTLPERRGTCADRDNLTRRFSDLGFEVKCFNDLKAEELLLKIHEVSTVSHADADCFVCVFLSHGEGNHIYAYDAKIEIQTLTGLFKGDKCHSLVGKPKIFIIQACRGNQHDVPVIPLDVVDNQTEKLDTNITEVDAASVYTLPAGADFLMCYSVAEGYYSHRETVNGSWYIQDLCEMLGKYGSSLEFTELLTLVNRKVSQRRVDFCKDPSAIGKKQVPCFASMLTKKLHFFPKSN
As to the kind of experiment: human caspase-6 inhibitors, dose response, biochemical, VEID-R110 fluorescence, cherry-pick (AID 720632).

In assay [3] the test system is Streptococcus sp. 'group A'. Kind of assay: growth inhibition of control SK(-) GAS strain, dose response, counter-screen for streptokinase expression inhibitor project, luminescence, kanamycin, BacTiterGlo, confirmation (AID 1900). The class given is functional, organism-based. A general note: The purpose of a counterscreen is to sort out artefacts and off-target activity.

Assay [4] addresses T2, Beta-galactosidase (Escherichia coli, UniProt Q8VNN2). Kind of assay: PubChem AID 485352. The assay is classed as functional.
The test system of assay [5] is Streptococcus. As to the kind of experiment: Group A Streptococcus viability loss, dose response, counter-screen for streptokinase expression inhibitor project, luminescence, BacTiterGlo (AID 1915).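 Further: potency for reduction of bacterial viability or growth.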 The assay is classed as functional, organism-based.
Assay [6] addresses T3, Streptokinase A (Streptococcus pyogenes serotype M1, UniProt P10520).
T3 sequence (P10520 whole entry): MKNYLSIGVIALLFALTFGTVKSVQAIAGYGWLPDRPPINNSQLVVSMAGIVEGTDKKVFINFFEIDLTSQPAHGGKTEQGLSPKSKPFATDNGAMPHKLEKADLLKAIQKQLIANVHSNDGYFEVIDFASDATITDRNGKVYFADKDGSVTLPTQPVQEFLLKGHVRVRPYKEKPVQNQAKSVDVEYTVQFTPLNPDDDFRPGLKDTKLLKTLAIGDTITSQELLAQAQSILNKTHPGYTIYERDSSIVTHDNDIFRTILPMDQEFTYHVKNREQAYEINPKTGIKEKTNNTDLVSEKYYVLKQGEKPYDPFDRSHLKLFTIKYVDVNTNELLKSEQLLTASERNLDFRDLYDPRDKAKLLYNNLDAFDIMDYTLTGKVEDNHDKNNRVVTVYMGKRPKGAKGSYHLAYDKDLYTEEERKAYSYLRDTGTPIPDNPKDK
Kind of assay: S. pyogenes streptokinase expression inhibitors, potency, dose response, plasminogen activation absorbance, OD405 (AID 1914).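 Further: secreted streptokinase activity via plasminogen activation per viability signal from cell pellet.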 The class given is functional, Streptococcus pyogenes M1 GAS.

Assay [7] addresses Type-1 angiotensin II receptor (Homo sapiens, UniProt P30556). As to the kind of experiment: AT1 receptor antagonists, dose response, selectivity assay for APJ receptor antagonist project, cell-based, uHTS hits (AID 463214).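 Further: antagonist potency against angiotensin II stimulated AT1 response.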 The assay is classed as functional.
Assay [8] addresses Voltage-gated inwardly rectifying potassium channel KCNH2 (Homo sapiens, UniProt Q12809). Particulars: Potency.
The nature of assay [9]: Shn3 3'UTR reporter inhibitors, dose response, cell-based, Clone20 osteoblasts, firefly luciferase, cherry-picked (AID 624132).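 Further: firefly luciferase luminescence from reporter carrying the Shn3 3'UTR in osteoblasts.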 The class given is functional.
Assay [10] has as its target T4, Protein skinhead-1 (Caenorhabditis elegans, UniProt P34707).
T4 sequence (P34707 whole entry): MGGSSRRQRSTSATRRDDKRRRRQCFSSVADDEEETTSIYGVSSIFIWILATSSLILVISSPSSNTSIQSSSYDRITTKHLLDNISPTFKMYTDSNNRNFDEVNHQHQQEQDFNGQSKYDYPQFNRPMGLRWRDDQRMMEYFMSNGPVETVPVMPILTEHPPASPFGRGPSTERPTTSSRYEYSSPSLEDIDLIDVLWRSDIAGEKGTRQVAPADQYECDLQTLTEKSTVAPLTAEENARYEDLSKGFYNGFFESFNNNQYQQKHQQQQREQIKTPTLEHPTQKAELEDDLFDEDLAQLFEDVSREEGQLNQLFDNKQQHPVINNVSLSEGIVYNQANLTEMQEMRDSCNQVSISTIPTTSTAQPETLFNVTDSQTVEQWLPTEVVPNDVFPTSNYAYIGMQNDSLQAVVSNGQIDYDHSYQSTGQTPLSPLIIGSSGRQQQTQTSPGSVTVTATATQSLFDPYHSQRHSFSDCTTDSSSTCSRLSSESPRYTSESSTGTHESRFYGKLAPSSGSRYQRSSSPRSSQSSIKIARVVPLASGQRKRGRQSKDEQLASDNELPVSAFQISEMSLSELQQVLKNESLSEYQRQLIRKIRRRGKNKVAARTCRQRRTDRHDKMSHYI
The class given is functional.

Assay [11] is described as follows: cells. The class given is functional, cell-based.
The test system of assay [12] is BJ. Kind of assay: cytotoxicity toward BJ-TERT fibroblasts, dose response, cell-based, RAS-independent, luminescence (AID 1933). The class given is functional. Particulars: Homo sapiens.
A short description of assay [13]: THP-1 cell cytotoxicity, dose response, cytotoxicity control for non-replicating M. tuberculosis project (AID 489025). The assay is classed as functional.
A short description of assay [14]: control 3'UTR Renilla luciferase suppression, dose response, counter-screen for Shn3 inhibitor project, cell-based, Clone20-Shn3RL, cherry-picked (AID 624133). The assay is classed as functional.
Assay [15] can be described thus: HepG2 cell cytotoxicity, dose response, cytotoxicity control for Shn3 inhibitor project, CellTiter-Glo, cherry-picked (AID 624134). The assay is classed as functional, cell-based. On the technique in general: ATP-based viability assays read luminescence as a measure of living cells.
Assay [16] deals with INS1. Kind of assay: beta cell apoptosis inhibitors, cytokine rescue, dose response, luminescence, retest (AID 449756).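 Further: cell death triggered by IL-1 beta plus TNF-alpha plus IFN-gamma mixture; protective hits raise ATP signal compared with cytokine alone wells.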 The assay is classed as functional, cell-based. Particulars: Rattus norvegicus.
The target in assay [17] is T5, Kappa-type opioid receptor (Homo sapiens, UniProt P41145). The assay is classed as functional.
T5 sequence (P41145 whole entry): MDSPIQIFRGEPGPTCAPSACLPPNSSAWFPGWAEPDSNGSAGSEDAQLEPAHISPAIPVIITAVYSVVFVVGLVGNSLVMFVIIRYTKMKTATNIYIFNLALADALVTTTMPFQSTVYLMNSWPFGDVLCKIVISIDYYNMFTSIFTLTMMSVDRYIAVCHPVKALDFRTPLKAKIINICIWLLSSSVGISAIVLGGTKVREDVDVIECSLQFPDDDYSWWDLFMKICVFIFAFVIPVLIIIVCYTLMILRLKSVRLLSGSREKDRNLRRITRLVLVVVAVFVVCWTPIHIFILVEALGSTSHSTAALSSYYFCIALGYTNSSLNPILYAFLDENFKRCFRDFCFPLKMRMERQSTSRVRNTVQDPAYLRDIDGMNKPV
Assay [18] is described as follows: cytotoxicity toward DRD oncogenic fibroblasts, dose response, cell-based, non-viral oncogenic, luminescence (AID 1934). The assay is classed as functional. Particulars: Homo sapiens.
In assay [19] the test system is BJ. Kind of assay: cytotoxicity toward BJ-TERT-LT-ST fibroblasts, dose response, cell-based, RAS-independent, luminescence (AID 1935).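 Further: BJ fibroblasts immortalized with TERT plus LT and ST oncogenes.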 The assay is classed as functional. As to conditions: Homo sapiens.
Assay [20] is described as follows: HepG2 cell cytotoxicity, dose response, cytotoxicity control, plate reader, cherry-pick, antagonist series (AID 743416). The class given is functional, cell-based.
In assay [21] the test system is Vero. Kind of assay: cells. As to conditions: Chlorocebus sabaeus. The assay is classed as functional.
Assay [22] is described as follows: cells. The class given is functional.
A short description of assay [23]: LGR2 antagonists, dose response, cell-based, HEK293, CRE-luciferase reporter, cherry pick, set 2 (AID 743343).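 Further: transfected cells were stimulated with diluted bursicon conditioned medium after compound addition.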 The assay is classed as functional.
The nature of assay [24]: cells. The assay is classed as functional, cell-based. This is another data set of the same source.
Assay [25] in a line: MC4R antagonists, dose response, counter-screen for LGR2 antagonist project, cell-based, plate reader, cherry pick (AID 743444).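 Further: transfected HEK 293 cells stimulated with alpha-MSH peptide; potency of inhibitors of the alpha-MSH evoked signal.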 The assay is classed as functional.
The nature of assay [26]: Vero E6 cell cytotoxicity, dose response, cytotoxicity control for non-replicating M. tuberculosis project, secondary assay (AID 492998). The assay is classed as functional, VeroE6. As to conditions: Vero C1008.
Assay [27] concerns Vero. As to the kind of experiment: cells. The assay is classed as functional, cell-based. Particulars: Chlorocebus sabaeus.
The target in assay [28] is T2, Beta-galactosidase. The assay is classed as functional.
In assay [29] the target is T5, Kappa-type opioid receptor. The class given is functional. The source holds these as a separate data set.
Assay [30] is described as follows: A549 cell cytotoxicity, dose response, cytotoxicity control, plate reader, cherry-pick, antagonist series (AID 743412). The assay is classed as functional, cell-based.
Assay [31] is described as follows: HEK293 cell cytotoxicity, dose response, cytotoxicity control, plate reader, cherry-picked samples (AID 743446). The assay is classed as functional, cell-based.
Assay [32] in a line: HepG2 cell cytotoxicity, dose response, cytotoxicity control for non-replicating M. tuberculosis project (AID 489018). The assay is classed as functional. As to conditions: Mycobacterium tuberculosis.
In assay [33] the test system is BJ. Kind of assay: cells. The class given is functional, cell-based. Particulars: Homo sapiens.

Structures are written as SMILES. The source made the active and inactive calls. A value given as a limit tells only on which side of the number the result lay.

T2 sequence (Q8VNN2 whole entry): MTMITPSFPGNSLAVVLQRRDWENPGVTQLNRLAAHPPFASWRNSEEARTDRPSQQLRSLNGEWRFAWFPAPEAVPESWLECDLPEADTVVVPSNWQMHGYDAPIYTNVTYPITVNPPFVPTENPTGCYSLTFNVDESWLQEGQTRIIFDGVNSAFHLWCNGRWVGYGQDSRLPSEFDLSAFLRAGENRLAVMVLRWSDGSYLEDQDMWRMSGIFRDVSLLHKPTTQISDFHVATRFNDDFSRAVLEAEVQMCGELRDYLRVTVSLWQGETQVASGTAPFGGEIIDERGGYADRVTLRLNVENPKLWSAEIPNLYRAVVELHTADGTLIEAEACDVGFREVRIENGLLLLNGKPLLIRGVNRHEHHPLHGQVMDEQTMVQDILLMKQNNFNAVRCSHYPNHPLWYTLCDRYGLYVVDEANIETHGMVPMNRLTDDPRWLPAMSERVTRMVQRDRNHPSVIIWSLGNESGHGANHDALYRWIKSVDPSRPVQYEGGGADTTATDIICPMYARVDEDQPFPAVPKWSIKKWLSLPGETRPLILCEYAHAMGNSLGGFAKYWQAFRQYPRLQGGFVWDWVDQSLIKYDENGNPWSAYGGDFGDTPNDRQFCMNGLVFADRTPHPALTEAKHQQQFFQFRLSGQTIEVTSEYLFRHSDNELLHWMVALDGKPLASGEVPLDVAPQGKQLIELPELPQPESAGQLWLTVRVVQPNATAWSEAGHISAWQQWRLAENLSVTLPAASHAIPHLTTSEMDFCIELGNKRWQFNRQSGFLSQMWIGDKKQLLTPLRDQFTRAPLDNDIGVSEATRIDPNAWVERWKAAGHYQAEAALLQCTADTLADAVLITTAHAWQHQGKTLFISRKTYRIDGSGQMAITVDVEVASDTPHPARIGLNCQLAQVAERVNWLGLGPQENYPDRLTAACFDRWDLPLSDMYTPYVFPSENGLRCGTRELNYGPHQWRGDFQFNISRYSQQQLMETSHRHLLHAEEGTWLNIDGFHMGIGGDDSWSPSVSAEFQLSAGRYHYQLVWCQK
Sequence of Type-1 angiotensin II receptor (P30556 whole entry): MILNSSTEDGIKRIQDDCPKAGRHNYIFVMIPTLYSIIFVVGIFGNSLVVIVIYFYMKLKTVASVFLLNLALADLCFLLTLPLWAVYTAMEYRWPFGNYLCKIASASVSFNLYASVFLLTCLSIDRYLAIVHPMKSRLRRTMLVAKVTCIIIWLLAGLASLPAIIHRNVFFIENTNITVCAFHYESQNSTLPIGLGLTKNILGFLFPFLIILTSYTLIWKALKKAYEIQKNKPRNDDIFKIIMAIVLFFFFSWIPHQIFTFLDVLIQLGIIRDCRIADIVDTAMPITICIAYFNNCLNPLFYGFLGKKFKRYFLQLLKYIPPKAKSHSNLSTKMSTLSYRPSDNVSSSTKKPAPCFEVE
Sequence of CAAX prenyl protease 2 (Q9Y256 whole entry): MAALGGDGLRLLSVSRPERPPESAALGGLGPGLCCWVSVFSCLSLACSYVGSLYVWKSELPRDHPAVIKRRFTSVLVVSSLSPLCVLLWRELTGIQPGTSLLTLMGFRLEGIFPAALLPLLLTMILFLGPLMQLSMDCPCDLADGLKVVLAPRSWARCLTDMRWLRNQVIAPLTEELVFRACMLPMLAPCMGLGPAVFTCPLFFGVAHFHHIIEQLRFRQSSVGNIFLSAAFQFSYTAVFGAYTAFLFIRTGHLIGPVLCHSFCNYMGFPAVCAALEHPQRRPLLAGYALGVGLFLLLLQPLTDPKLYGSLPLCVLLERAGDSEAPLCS
Sequence of Voltage-gated inwardly rectifying potassium channel KCNH2 (Q12809 whole entry): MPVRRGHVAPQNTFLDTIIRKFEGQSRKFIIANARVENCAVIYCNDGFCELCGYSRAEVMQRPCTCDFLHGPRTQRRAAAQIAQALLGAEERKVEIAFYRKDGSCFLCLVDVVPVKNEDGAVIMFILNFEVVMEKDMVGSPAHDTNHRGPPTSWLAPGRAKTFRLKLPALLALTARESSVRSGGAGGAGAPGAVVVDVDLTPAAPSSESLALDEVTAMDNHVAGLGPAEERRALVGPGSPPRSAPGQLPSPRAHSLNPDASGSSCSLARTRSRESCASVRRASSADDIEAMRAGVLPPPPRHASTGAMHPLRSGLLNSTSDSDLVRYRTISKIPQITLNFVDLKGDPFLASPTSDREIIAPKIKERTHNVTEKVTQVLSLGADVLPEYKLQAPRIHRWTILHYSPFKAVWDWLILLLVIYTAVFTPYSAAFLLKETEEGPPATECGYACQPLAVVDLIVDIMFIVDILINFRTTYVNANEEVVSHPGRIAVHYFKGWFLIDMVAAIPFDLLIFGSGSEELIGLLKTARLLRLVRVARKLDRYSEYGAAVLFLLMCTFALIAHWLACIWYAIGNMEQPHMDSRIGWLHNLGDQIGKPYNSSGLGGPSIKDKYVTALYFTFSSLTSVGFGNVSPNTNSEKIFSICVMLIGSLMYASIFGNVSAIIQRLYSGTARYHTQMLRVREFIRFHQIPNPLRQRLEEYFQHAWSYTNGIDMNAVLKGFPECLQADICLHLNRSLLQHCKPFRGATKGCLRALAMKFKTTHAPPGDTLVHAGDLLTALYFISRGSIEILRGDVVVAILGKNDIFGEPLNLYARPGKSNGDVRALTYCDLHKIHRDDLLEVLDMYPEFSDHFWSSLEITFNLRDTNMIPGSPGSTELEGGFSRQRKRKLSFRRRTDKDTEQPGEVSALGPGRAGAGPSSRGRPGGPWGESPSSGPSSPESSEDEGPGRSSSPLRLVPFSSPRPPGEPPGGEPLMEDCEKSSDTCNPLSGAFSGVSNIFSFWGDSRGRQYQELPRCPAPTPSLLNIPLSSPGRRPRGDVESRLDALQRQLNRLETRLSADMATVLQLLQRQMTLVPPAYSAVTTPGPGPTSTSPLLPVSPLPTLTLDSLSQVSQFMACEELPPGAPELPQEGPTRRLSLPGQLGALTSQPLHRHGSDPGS

`O=C(CCNS(=O)(=O)c1ccc2nc(O)oc2c1)NCc1ccccc1`: the AC50 (in general, the concentration giving half of the maximal activity seen) in assay [1] is > 100 µM (inactive).
As for `O=C(N/N=C/c1cn(Cc2ccccc2)c2ccccc12)c1cc(O)cc(O)c1`, the AC50 in assay [1] was 12.6 µM (active); in assay [2], 3.09 µM (active).
Take `Cc1ccc(NNC(=O)c2cc(C(C)(C)C)nn2Cc2ccccc2)cc1`: the EC50 (in general, the midpoint of the concentration-response curve) in assay [3] is 17.5 µM (active); in assay [4], > 40 µM (inactive); in [5] it was > 150 µM (not active); in assay [6], 29.5 µM (active). Besides, the IC50 (as a rule, the concentration at which inhibition is half-maximal) in assay [7] is 3.81 µM (active).
Turning to `N#CC(Cc1ccc(O)c(O)c1)C(=O)N1CCc2ccccc21` (stereo unspecified), in [8], the AC50 is 15.8 µM (inconclusive).
For `O=C(Nc1nc2c(F)cc(F)cc2s1)c1ccccn1`, the AC50 was 6.69 µM (active) in assay [9]; 2.21 µM (active) in assay [14]; 15.2 µM (active) in [15]; 2.08 µM (active) in [16]; 2.09 µM (active) in assay [20]; 4.05 µM (active) in [23]. The concentration at half-maximal activity (AC50) is 3.17 µM (active) in assay [25], 2.66 µM (active) in [30] and 10.8 µM (active) in assay [31]. Besides, the IC50 in assay [10] is > 100 µM (inactive); in assay [17], above 32 µM; in [22], 0.42 µM (active); in assay [27], > 25 µM (active); in assay [7] it was 9.46 µM (active); in assay [29], 8.25 µM (active). For the same compound, the concentration for a half-maximal effect (EC50) is 7.18 µM (active) in [11]; 11.2 µM (active) in assay [12]; 1.63 µM (active) in assay [18]; > 150 µM (not active) in assay [19]; > 40 µM (inactive) in assay [4]; > 350 µM (not active) in [24]. Also, the EC50 in [28] is > 31.5 µM (inactive); in assay [33], 78.2 µM (active). Also, the cytotoxic concentration (CC50) (commonly the concentration giving 50% cytotoxicity) in assay [13] was 2.14 µM (active); in assay [21] it was 7.89 µM (active); in [26] it was 2.12 µM (active); in [32], 4.95 µM (active).
